The text below walks through data of patent US6699682B2, “Assay for inhibitors of fatty-acid amide hydrolase” (The Scripps Research Institute, priority 1995, dated 2004).

One experiment has as its target T1, recombinant rat FAAH (Rattus norvegicus, UniProt P97612).
T1 construct: expressed in transfected cells; host or cells: COS-7 cells, transient, pcDNA3; dounce-homogenised cell extract
T1 sequence (P97612 1-579): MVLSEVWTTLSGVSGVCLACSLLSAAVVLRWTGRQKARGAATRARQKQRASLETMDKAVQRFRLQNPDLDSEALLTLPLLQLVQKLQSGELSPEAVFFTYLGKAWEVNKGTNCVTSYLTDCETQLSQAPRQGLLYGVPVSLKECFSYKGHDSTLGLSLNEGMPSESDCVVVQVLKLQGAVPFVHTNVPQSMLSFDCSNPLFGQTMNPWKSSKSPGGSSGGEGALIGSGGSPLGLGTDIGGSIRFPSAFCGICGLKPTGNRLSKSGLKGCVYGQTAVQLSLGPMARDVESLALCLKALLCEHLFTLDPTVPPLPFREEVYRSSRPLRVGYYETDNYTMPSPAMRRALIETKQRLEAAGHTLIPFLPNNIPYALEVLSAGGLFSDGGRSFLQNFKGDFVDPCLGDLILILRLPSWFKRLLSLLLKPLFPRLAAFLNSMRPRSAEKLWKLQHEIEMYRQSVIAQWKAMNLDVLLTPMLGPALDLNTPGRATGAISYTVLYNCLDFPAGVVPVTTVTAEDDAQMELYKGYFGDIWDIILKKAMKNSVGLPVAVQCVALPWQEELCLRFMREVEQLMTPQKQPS
As to the kind of experiment: oleamide hydrolase activity of rat FAAH-transfected COS-7 cell extract and its inhibition (TLC). In kind it is biochemical. The following applies: versus untransfected and control transfected cells. The method, then: The following thin layer chromatography (TLC) protocol is used for assaying cis-9,10 octadecenoamide hydrolysis activity, also referred to as fatty-acid amide hydrolase activity. Oleamide is first labeled with ^14C. To accomplish this, ^14C-Oleic acid (1-10 μM, Moravek Biochemicals, 5-50 μCi/μM) in CH2CL2 (200 μL, 0.005-0.05 M) at 0° C. was treated with excess oxalyl chloride and the reaction mixture was warmed to 25° C. for 6 hours. The reaction mixture was then concentrated under a constant stream of gaseous nitrogen and the remaining residue was cooled to 0° C. and treated with excess saturated aqueous ammonium hydroxide. After 5 minutes, the reaction mixture was partitioned between Et)Ac (1.5 mL) and 10% HCl (1.0 mL). The organic layer was then washed with water (1.0 mL) and concentrated under a constant stream of gaseous nitrogen to provide ^14C-oleamide in quantitative yield as judged by TLC (60% EtOAc in hexanes; oleamide Rf−0.2; oleic acid Rf−0.8). […]
While untransfected COS-7 cells contained negligible amounts of oleamide hydrolase activity, COS-7 cells transfected with the rat FAAH cDNA expressed high levels of oleamide hydrolase activity (FIG. 15A). The assay was performed as described in Section B where by TLC the conversion of oleamide to oleic acid was assessed. […]

Experiment [1] deals with T2, recombinant expressed rat FAAH (Rattus norvegicus, UniProt P97612).
T2 construct: expressed in transfected cells; host or cells: COS-7 cells, transient, pcDNA3; dounce-homogenised cell extract
T2 sequence (P97612 1-579): T1 sequence (P97612 1-579)
The experiment can be described thus: FAAH hydrolysis assays with 14C-labeled fatty acid amide substrates (TLC, scintillation counting). The class given is biochemical. The note with it: 100 μM substrate. As to the method:
Therefore, COS-7 cells transfected with the rat FAAH cDNA were assayed for anandamide hydrolase activity. To assess the enzymatic activity of the expressed recombinant fatty acid amide hydrolases of this invention on labeled anandamide, the following enzymatic assay was performed. ^14C-anandamide was synthesized as follows: 12.5 μCi (specific activity of 50 μCi/μM) of ^14C arachidonic acid (Moravek Biochemicals) was dissolved in 100 μl CH2Cl2, cooled to 0° C., and treated with excess oxalyl chloride. The reaction mixture was stirred at 25° C. for 6 hours, after which time the solvent was evaporated. The remaining residue was cooled to 0° C., treated with a large excess of ethanolamine, and stirred at 25° C. for 15 minutes. The reaction mixture was then partitioned between ethyl acetate and 2 M HCl, and the organic layer was washed with water and then evaporated to dryness. The resulting ^14C-anandamide was diluted with unlabeled anandamide to a final specific activity of 5 μCi/μM in ethanol. Approximately 1 μCi of ^14C-anandamide and 20 μl of dounce homogenized COS-7 cell extract were used for each anandamide hydrolase assay as detailed above for the oleamide hydrolase assays. Briefly, FAAH hydrolysis assays were conducted in triplicate with 100 μM substrate, 35 μg of rat transfected COS-7 cell protein for 5 minutes at 37° C. (except in the case of stearic amide, where due to low solubility, 20 μM substrate comparison to oleamide were conducted). Products were separated on TLC as described previously, scraped into scintillation fluid, and radioactivity was quantitated by scintillation counting. Substrate hydrolysis in the presence of equal amounts of untransfected COS-7 cell protein extract served as background control in all cases and was substracted from FAAH hydrolysis rates to give the data as presented below.
To further assess the substrate specificity spectrum of enyzmatic hydolytic activity of the recombinant expressed proteins of this invention, other ^14C-labeled fatty acid amides were synthesized as described in Section B6 and above for ^14C-oleamide, with the exception of anandamide as described.
Where indicated in the table the anandamide and oleamide hydrolysis rates are considered to be 100% of FAAH activity to which other fatty acid amide hydrolysis rates are compared.

A further experiment concerns neuroblastoma cells. The note with it: anandamide incubated with neuroblastoma cells; cited from earlier work.

Turning to `CCCCC/C=C\C/C=C\C/C=C\C/C=C\CCCC(=O)NCCO` [Anandamide, arachidonylethanolamide], the “conversion of labeled substrate by rat FAAH-transfected COS-7 cells (qualitative, TLC)” value on recombinant rat FAAH is on record as “high levels of anandamide hydrolase activity”. In addition, the “% of FAAH activity (anandamide hydrolysis rate = 100%)” value in experiment [1] is given as 100%. Moreover, the “Rate of Hydrolysis” value in experiment [1] (35 μg transfected COS-7 cell protein, 5 minutes, 37° C.) turned out to be 333 ± 30 nmol/min/mg.
Take arachidonyl trifluoromethyl ketone: the “increase of anandamide levels in the presence of the inhibitor” value with neuroblastoma cells is recorded as 5 fold.
